In US9296690B2, “Method for inhibiting differentiation of osteoclast and pharmaceutical composition comprising thereof” (Metacine, Inc., priority 2012, dated 2016):

What was measured:
RAW 264.7 cell = experiment: Inhibition effect on osteoclast differentiation (RANKL-stimulated RAW 264.7 cells, TRAP stain, osteoclast count); format: cell-based, mouse; conditions: RAW 264.7 + RANKL; for osteoclast differentiation degree (number of cells differentiated to osteoclasts): 7 days, osteoclasts with more than 4 nuclei, two values per concentration, control 51.5
Method: RAW 264.7 cell, a mouse macrophage/monocyte cell line which can be differentiated in various forms depends on its surrounding environments and stimuli, is differentiated to multinucleated osteoclast by the stimulus of RANKL (100 ng/ml). Inhibition effect of each compound on osteoclast differentiation was analyzed by comparing the degree of osteoclast differentiation when RAW 264.7 cell was treated with RANKL and the subject each compound simultaneously.
Inhibition activities of osteoclast differentiation in respect of compounds 4a, 4b, 4c, 4d, 4e, 4f, 4 g, 4 h, 4i, 4j, 4k, 4l, 4m, 4n, 4o, 7a, 7b, 7c, and 7d were tested. Macrophage/monocyte RAW 264.7 cell was used as a cell and 1.5×10^3 cells were seeded in a 96 well plate. The synthesized compound and zoledronic acid as a control material were dissolved in 10% DMSO aqueous solution and treated to cells according to each concentration […].
After pre-treating each compound for 6 hours and then, treating RANKL, the incubation was carried out for 7 days in a 5% CO2 incubator. To observe osteoclasts well, they were stained by TRAP (tartrate resistance acid phosphatase) stain method. The number of cells differentiated to osteoclasts was counted and then, a comparative analysis was conducted for the degree of each compound's osteoclast differentiation.
Only the osteoclasts containing nucleus number more than 4 were only counted as effective analysis targets in both control and experiment groups (See FIGS. 1 and 2).

NF-kappa B = experiment: Inhibition of NF-kappa B in RAW264.7 cells; format: cell-based, mouse; conditions: 10 μM, 12 hours, then ALLN and RANKL 30 minutes
Excerpt: It is confirmed that the compound of 4e is suppressed the mechanism of NF-kappa B 2 times more than ZA (FIG. 3)

human integrin αyβ3 = biological target: T1, human integrin αyβ3 (Homo sapiens, UniProt P05106+P06756); experiment: Inhibition activity of osteopontin-integrin binding (protein chip); conditions: n=6
T1 construct: purchased Milipore
Method: After the human integrin αyβ3 (100 μg/ml, Milipore) was fixed to the protein chip (PeproTech), the human recombinant OPN (40 μg/ml, PeproTech) molecule coupled with Cy5-fluorescent was reacted for 1 hour. Echistatin molecule (40 μg/ml, Sigma-Aldrich) was used as a positive control. The samples were simultaneously treated to conduct a comparative analysis for the binding inhibitory effect thereof. Finally, the strength of luminescence is scanned by using image analysis scanner and analyzed to the GraphPad Prism 4 software. […] The binding inhibitory activity of compound 4e of the invention was about 3 times higher than that of ZA (n=6)(FIG. 5).

[1] = biological target: T2, human recombinant sRNAK receptor (Homo sapiens, UniProt Q9Y6Q6); experiment: Inhibition activity of RANK receptor binding (protein chip, sRANK ligand); conditions: n=6
T2 construct: human recombinant sRNAK receptor molecule; purchased PeproTech
T2 sequence (Q9Y6Q6 30-212 limits assumed): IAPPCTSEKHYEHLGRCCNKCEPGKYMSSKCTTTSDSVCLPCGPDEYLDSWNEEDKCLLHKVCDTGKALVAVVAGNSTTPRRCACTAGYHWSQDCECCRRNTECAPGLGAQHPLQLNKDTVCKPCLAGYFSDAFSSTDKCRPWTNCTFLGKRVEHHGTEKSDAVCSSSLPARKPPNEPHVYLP
Method: After the human recombinant sRNAK receptor molecule (100 μg/ml, PeproTech) was fixed to the protein chip (PeproTech), human recombinant sRANK ligand (10 μg/ml, PeproTech) was treated and incubated for 1 hour. OPG molecule was used as a positive control, and the compound and OPG are simultaneously treated. A comparative analysis was conducted to compare the binding inhibition effect of the compound using OPG as a control. Mouse anti-human sRANK ligand monoclonal antibody coupled with Cy5-fluorescent (1.0 μg/ml, PeproTech) was treated for 30 minutes, and scanning the strength of luminescence by using image analysis scanner and analyzed to the GraphPad Prism 4 software. Out of the above stated compounds, compound 4e and ZA were comparatively analyzed. […] That of the compound 4e was 46.70%.

T1 sequence (P06756 31-889 limits assumed): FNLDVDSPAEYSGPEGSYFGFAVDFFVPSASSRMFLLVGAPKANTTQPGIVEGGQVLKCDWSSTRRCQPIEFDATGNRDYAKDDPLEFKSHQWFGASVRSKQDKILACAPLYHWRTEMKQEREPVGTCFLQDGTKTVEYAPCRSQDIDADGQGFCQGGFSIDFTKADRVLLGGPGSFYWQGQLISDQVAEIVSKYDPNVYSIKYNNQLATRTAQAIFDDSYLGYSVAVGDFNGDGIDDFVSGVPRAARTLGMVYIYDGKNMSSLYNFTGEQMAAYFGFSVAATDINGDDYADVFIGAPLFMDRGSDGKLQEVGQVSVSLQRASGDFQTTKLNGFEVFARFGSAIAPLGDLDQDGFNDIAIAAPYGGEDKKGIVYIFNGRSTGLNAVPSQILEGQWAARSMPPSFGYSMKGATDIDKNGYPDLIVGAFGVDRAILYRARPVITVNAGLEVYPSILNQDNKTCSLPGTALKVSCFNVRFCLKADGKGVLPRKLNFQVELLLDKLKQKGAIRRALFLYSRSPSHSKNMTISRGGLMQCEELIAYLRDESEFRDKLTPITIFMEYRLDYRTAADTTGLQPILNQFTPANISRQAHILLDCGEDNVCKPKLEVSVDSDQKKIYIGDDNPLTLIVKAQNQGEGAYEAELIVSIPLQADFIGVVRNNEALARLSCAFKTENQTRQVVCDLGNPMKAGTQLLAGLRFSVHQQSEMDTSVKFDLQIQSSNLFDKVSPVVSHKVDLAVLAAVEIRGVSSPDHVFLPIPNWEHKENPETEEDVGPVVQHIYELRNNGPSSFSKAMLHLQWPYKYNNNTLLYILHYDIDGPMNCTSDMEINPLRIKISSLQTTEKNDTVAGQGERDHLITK
T1 sequence (P06756 891-1048 partner limits assumed): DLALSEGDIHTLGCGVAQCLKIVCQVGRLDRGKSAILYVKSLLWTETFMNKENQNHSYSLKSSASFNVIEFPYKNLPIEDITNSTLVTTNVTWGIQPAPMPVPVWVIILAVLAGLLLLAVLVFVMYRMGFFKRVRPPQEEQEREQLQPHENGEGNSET
T1 sequence (P05106 27-788): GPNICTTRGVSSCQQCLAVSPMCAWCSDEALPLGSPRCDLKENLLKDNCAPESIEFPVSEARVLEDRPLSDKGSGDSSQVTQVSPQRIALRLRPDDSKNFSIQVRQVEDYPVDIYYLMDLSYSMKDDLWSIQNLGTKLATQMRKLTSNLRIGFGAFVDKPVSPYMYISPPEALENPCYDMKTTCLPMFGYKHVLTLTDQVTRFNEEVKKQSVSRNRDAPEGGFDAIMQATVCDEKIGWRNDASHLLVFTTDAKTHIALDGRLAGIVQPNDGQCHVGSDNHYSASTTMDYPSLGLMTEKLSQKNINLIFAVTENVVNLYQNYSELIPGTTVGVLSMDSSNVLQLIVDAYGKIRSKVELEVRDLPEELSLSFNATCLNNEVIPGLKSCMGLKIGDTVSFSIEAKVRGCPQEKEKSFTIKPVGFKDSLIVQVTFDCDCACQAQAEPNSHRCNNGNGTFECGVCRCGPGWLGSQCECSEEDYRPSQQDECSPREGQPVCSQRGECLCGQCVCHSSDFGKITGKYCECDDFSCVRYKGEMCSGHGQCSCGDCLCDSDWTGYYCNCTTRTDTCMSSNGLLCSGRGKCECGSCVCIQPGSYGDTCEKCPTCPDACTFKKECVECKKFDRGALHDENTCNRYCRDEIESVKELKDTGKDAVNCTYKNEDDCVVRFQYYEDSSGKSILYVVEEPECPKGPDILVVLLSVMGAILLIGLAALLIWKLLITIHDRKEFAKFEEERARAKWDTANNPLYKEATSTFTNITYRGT

Compound: CC(C)c1cccc(C(C)C)c1N1C(=O)C(c2ccccc2)=C(c2ccccc2)C1=O [Compound 4a, 1-(2,6-diisopropylphenyl)-3,4-diphenyl-1H-pyrrole-2,5-dione]
- melting point: 233 to 234 °C

Compound: O=C1C(c2ccccc2)=C(c2ccccc2)C(=O)N1c1ccccc1Cl [Compound 4c, 1-(2-chlorophenyl)-3,4-dipheyl-1H-pyrrole-2,5-dione]
- melting point: 213 to 214 °C

Compound: O=C1C(c2ccccc2)=C(c2ccccc2)C(=O)N1c1cccc(Cl)c1 [Compound 4d, 1-(3-chlorophenyl)-3,4-diphenyl-1H-pyrrole-2,5-dione]
- melting point: 144 to 145 °C

Compound: O=C1C(c2ccccc2)=C(c2ccccc2)C(=O)N1c1ccc(Cl)cc1 [Compound 4e, 1-(4-chlorophenyl)-3,4-diphenyl-1H-pyrrole-2,5-dione]
- inhibition effect on osteoclast differentiation (in words) (RAW 264.7 cell): more superior inhibition effect on osteoclast differentiation than the control group of zoledronic acid
- suppression of the mechanism of NF-kappa B relative to ZA (NF-kappa B): 2 times
- OPN-integrin binding inhibitory activity relative to ZA (human integrin αyβ3): about 3 times
- binding inhibitory rate with integrin molecule (OPN-integrin) (human integrin αyβ3): 26.45%
- binding inhibitory activity upon to RANK receptor [1]: 46.70%
- binding inhibitory activity upon to RANK receptor relative to ZA [1]: about 1.7 times

Compound: O=C1C(c2ccccc2)=C(c2ccccc2)C(=O)N1c1ccccc1C(F)(F)F [Compound 4f, 3,4-diphenyl-1-(2-(trifluoromethyl)phenyl)-1H-pyrrole-2,5-dione]
- melting point: 152 to 153 °C

Compound: O=C1C(c2ccccc2)=C(c2ccccc2)C(=O)N1C1CCCCC1 [Compound 4g, 1-cyclohexyl-3,4-diphenyl-1H-pyrrole-2,5-dione]
- melting point: 159 to 160 °C

Compound: O=C(O)c1cc(N2C(=O)C(c3ccccc3)=C(c3ccccc3)C2=O)ccc1O [Compound 4i, 5-(2,5-dioxo-3,4-diphenyl-2,5-dihydro-1H-pyrrol-1-yl)-2-hydroxybenzoic acid]
- melting point: 249 to 250 °C

Compound: O=C1C(c2ccccc2)=C(c2ccccc2)C(=O)N1c1cccc(F)c1 [Compound 4k, 1-(3-fluorophenyl)-3,4-diphenyl-1H-pyrrole-2,5-dione]
- osteoclast differentiation degree (number of cells differentiated to osteoclasts) (RAW 264.7 cell; 0.5 μM): 40
- osteoclast differentiation degree (number of cells differentiated to osteoclasts) (RAW 264.7 cell; 1 μM): 25
- osteoclast differentiation degree (number of cells differentiated to osteoclasts) (RAW 264.7 cell; 5 μM): 40
- osteoclast differentiation degree (number of cells differentiated to osteoclasts) (RAW 264.7 cell; 10 μM): 28
- melting point: 157 to 158 °C

Compound: O=C1C(c2ccccc2)=C(c2ccccc2)C(=O)N1Cc1ccccc1F [Compound 4n, 1-(2-fluorobenzyl)-3,4-diphenyl-1H-pyrrole-2,5-dione]
- melting point: 113 to 114 °C

Compound: O=C1C(c2ccccc2)=C(c2ccccc2)C(=O)N1Cc1cccc(F)c1 [Compound 4o, 1-(3-fluorobenzyl)-3,4-diphenyl-1H-pyrrole-2,5-dione]
- melting point: 107 to 108 °C

Compound: O=C1C(c2ccccc2)=C(c2ccccc2)C(=O)N1CCc1ccccc1F [Compound 4r, 1-(2-fluorophenethyl)-3,4-diphenyl-1H-pyrrole-2,5-dione]
- melting point: 111 to 112 °C

Compound: O=C1C(c2ccccc2)=C(c2ccccc2)C(=O)N1CCc1cccc(F)c1 [Compound 4s, 1-(3-fluorophenethyl)-3,4-diphenyl-1H-pyrrole-2,5-dione]
- melting point: 129 to 130 °C

Compound: O=C1C(c2ccccc2)=C(c2ccccc2)C(=O)N1CCc1ccc(F)cc1 [Compound 4t, 1-(4-fluorophenethyl)-3,4-diphenyl-1H-pyrrole-2,5-dione]
- melting point: 153 to 154 °C

Compound: O=P(O)(O)C(O)(Cn1ccnc1)P(=O)(O)O [ZA, zoledronic acid, reference compound]
- binding inhibitory rate with integrin molecule (OPN-integrin) (human integrin αyβ3): 8.65%
- binding inhibitory activity upon to RANK receptor [1]: 27.55%

Compound: Echistatin [reference compound]
- binding inhibitory rate with integrin molecule (OPN-integrin) (human integrin αyβ3): 51.75%

Compound: OPG: OPG (osteoprotegrin) molecule, RANKL antagonist, used as a positive control [reference compound]
- binding inhibitory activity upon to RANK receptor [1]: 83.65%
